# Assay results from patent US20260176319A1, “PEPTIDE ANALOGS AND METHODS OF USING THE SAME” (Kallyope, Inc., priority 2024, published 2026).
# pEC50: −log10 of the molar value. Starred links: 1 amine or outer side, 2 acyl side, 3 side chain; linkers in the order of their positions; H or OH if unused. Non-standard residues stand in square brackets, D forms with d. Residues, ends and D or L forms follow the SMILES beside them. *: point of attachment. Trp(7-Me) = Cc1cccc2c(C[C@H](N)C(=O)O)c[nH]c12; C20 diacid = O=C(O)CCCCCCCCCCCCCCCCCCC(=O)*; d(γGlu) = O=C(O)[C@@H](CCC(=O)[*:2])N[*:1]; C18 diacid = O=C(O)CCCCCCCCCCCCCCCCC(=O)*; γGlu = O=C(O)[C@H](CCC(=O)[*:2])N[*:1]; 2Nal = N[C@@H](Cc1ccc2ccccc2c1)C(=O)O; 3Pal = N[C@@H](Cc1cccnc1)C(=O)O; Nle = CCCC[C@H](N)C(=O)O; AEEA = NCCOCCOCC(=O)O; βAla = NCCC(=O)O; Sar = CNCC(=O)O
# Biological target: T1, human GRP receptors (Homo sapiens, UniProt P30550)
# T1 construct: host or cells: U2OS
# T1 sequence (P30550 whole entry): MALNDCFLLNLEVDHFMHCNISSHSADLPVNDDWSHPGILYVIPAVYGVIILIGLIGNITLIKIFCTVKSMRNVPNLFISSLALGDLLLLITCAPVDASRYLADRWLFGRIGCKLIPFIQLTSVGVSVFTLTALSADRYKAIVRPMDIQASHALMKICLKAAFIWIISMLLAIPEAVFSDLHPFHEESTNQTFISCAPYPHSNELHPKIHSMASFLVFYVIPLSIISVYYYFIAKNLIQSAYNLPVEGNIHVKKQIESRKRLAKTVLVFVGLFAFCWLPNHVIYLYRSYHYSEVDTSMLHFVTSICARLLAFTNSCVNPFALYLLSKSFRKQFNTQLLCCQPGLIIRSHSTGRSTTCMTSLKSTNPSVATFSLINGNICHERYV
# Experiment: IP1 GRPR activity: HTRF IP1-Gq assay in U2OS cells stably expressing human GRP receptors
# Format: cell-based
# Details: 90 minutes incubation, read-out: hIP1 GRPR EC50
# Description: U2OS cells stably expressing human GRP receptors (DiscoverX, #93-0229C3) were cultured according to manufacturer's instructions. Cells were cultured to […], then collected using AccuTase (Innovative Cell Technologies, #AT104). Cells were washed and plated on a poly-D-lysine-coated 384-well plate (ThermoFisher, #A3890401) at a density of 2,500 cells/well in […] assay buffer (AssayComplete Cell Plating 5 Reagent, DiscoverX #93-0563R5), then incubated overnight at 37° C. and 5% C02. The following morning, a homogenous time-resolved fluorescence (HTRF) assay was performed in a 384-well plate format using the IP1-Gq assay kit (Cisbio, 62IPAPEB). Test compounds were made as a stock in DMSO, then serially diluted to generate 10-point dose response curves in IP1 stimulation buffer. Five microliters of the prepared compounds were then added to the plate containing cells and assay buffer in duplicate, and the cells were incubated at 37° C. and 5% CO2 for 90 minutes. Following compound incubation, […] of IP1 lysis/detection buffer (prepared according to manufacturer's instructions) was added to each well, and the plates were incubated at room temperature for 1 hour. HTRF signals were measured using a plate reader (ClarioSTAR), calculating the ratio between emissions at 665 nm and 620 nm (HTRF ratio). HTRF ratio for positive (Max, […]; SEQ ID NO. 45) and negative (Min, DMSO) controls were used to normalize HTRF data and generate values for % activity. EC50 and Max activity values were determined using a standard 4-parameter fit using GraphPad Prism.
row,pEC50,Structure (SMILES)
1,< 5.00,"CCCC[C@H](NC(=O)[C@H](CC(C)C)NC(=O)[C@H](Cc1c[nH]cn1)NC(=O)[C@@H](C)NC(=O)[C@@H](NC(=O)[C@H](C)NC(=O)[C@H](Cc1c[nH]cn1)NC(=O)[C@H](Cc1c[nH]cn1)NC(=O)[C@H](CC(N)=O)NC(=O)CNC(=O)COCCOCCNC(=O)COCCOCCNC(=O)CC[C@@H](NC(=O)CCCCCCCCCCCCCCCCC(=O)O)C(=O)O)C(C)C)C(N)=O [Peptide 68, Octadecanedioyl-D-γGlu-OEG-OEG-Gly-Asn-His-His-Ala-Val-D-Ala-His-Leu-Nle-NH2] ({C18 diacid-d(γGlu)-AEEA-AEEA}-GNHHAV[dA]HL[Nle]-NH2)"
2,< 5.00,"CC(C)C[C@H](NC(=O)[C@H](Cc1c[nH]cn1)NC(=O)[C@@H](C)NC(=O)[C@@H](NC(=O)[C@H](C)NC(=O)[C@H](Cc1c[nH]c2ccccc12)NC(=O)[C@H](Cc1c[nH]cn1)NC(=O)[C@H](CC(N)=O)NC(=O)CNC(=O)COCCOCCNC(=O)COCCOCCNC(=O)CC[C@@H](NC(=O)CCCCCCCCCCCCCCCCC(=O)O)C(=O)O)C(C)C)C(=O)N[C@@H](CCCNC(=N)N)C(N)=O [Peptide 69, Octadecanedioyl-D-γGlu-OEG-OEG-Gly-Asn-His-Trp-Ala-Val-D-Ala-His-Leu-Arg-NH2] ({C18 diacid-d(γGlu)-AEEA-AEEA}-GNHWAV[dA]HLR-NH2)"
3,5.98,"CCCC[C@H](NC(=O)[C@H](CC(C)C)NC(=O)[C@H](Cc1c[nH]cn1)NC(=O)[C@@H](C)NC(=O)[C@@H](NC(=O)[C@H](C)NC(=O)[C@H](Cc1c[nH]c2ccccc12)NC(=O)[C@H](Cc1cccnc1)NC(=O)[C@H](CC(N)=O)NC(=O)CNC(=O)COCCOCCNC(=O)COCCOCCNC(=O)CC[C@@H](NC(=O)CCCCCCCCCCCCCCCCC(=O)O)C(=O)O)C(C)C)C(=O)N(C)CC(N)=O [Peptide 72, Octadecanedioyl-D-γGlu-OEG-OEG-Gly-Asn-3Pal-Trp-Ala-Val-D-Ala-His-Leu-Nle-Sar-NH2] ({C18 diacid-d(γGlu)-AEEA-AEEA}-GN[3Pal]WAV[dA]HL[Nle][Sar]-NH2)"
4,< 5.00,"CCCC[C@H](NC(=O)[C@H](CC(C)C)NC(=O)[C@H](Cc1c[nH]cn1)NC(=O)[C@@H](C)NC(=O)[C@@H](NC(=O)[C@H](C)NC(=O)[C@H](Cc1ccc2ccccc2c1)NC(=O)[C@H](Cc1c[nH]cn1)NC(=O)[C@H](CC(N)=O)NC(=O)CNC(=O)COCCOCCNC(=O)COCCOCCNC(=O)CC[C@H](NC(=O)CCCCCCCCCCCCCCCCC(=O)O)C(=O)O)C(C)C)C(=O)N(C)CC(N)=O [Peptide 99, Octadecanedioyl-γGlu-OEG-OEG-Gly-Asn-His-2Nal-Ala-Val-D-Ala-His-Leu-Nle-Sar-NH2] ({C18 diacid-γGlu-AEEA-AEEA}-GNH[2Nal]AV[dA]HL[Nle][Sar]-NH2)"
5,< 5.00,"CCCC[C@H](NC(=O)[C@H](CC(C)C)NC(=O)[C@H](Cc1c[nH]cn1)NC(=O)[C@@H](C)NC(=O)[C@@H](NC(=O)[C@H](C)NC(=O)[C@H](Cc1c[nH]cn1)NC(=O)[C@H](Cc1c[nH]cn1)NC(=O)[C@H](CC(N)=O)NC(=O)CNC(=O)COCCOCCNC(=O)COCCOCCNC(=O)CC[C@H](NC(=O)CCCCCCCCCCCCCCCCC(=O)O)C(=O)O)C(C)C)C(N)=O [Peptide 107, Octadecanedioyl-γGlu-OEG-OEG-Gly-Asn-His-His-Ala-Val-D-Ala-His-Leu-Nle-NH2] ({C18 diacid-γGlu-AEEA-AEEA}-GNHHAV[dA]HL[Nle]-NH2)"
6,< 5.00,"CCCC[C@H](NC(=O)[C@H](CC(C)C)NC(=O)[C@H](Cc1c[nH]cn1)NC(=O)[C@@H](C)NC(=O)[C@@H](NC(=O)[C@H](C)NC(=O)[C@H](CCCNC(=N)N)NC(=O)[C@H](Cc1c[nH]cn1)NC(=O)[C@H](CC(N)=O)NC(=O)CNC(=O)COCCOCCNC(=O)COCCOCCNC(=O)CC[C@H](NC(=O)CCCCCCCCCCCCCCCCC(=O)O)C(=O)O)C(C)C)C(N)=O [Peptide 108, Octadecanedioyl-γGlu-OEG-OEG-Gly-Asn-His-Arg-Ala-Val-D-Ala-His-Leu-Nle-NH2] ({C18 diacid-γGlu-AEEA-AEEA}-GNHRAV[dA]HL[Nle]-NH2)"
7,< 5.00,"CCCC[C@H](NC(=O)[C@H](CC(C)C)NC(=O)[C@H](Cc1c[nH]cn1)NC(=O)[C@@H](C)NC(=O)[C@@H](NC(=O)[C@H](C)NC(=O)[C@H](Cc1c[nH]c2ccccc12)NC(=O)[C@H](Cc1c[nH]cn1)NC(=O)[C@H](CC(N)=O)NC(=O)CNC(=O)COCCOCCNC(=O)COCCOCCNC(=O)CC[C@H](NC(=O)CCCCCCCCCCCCCCCCC(=O)O)C(=O)O)C(C)C)C(=O)N[C@@H](CCCNC(=N)N)C(N)=O [Peptide 114, Octadecanedioyl-γGlu-OEG-OEG-Gly-Asn-His-Trp-Ala-Val-D-Ala-His-Leu-Nle-Arg-NH2] ({C18 diacid-γGlu-AEEA-AEEA}-GNHWAV[dA]HL[Nle]R-NH2)"
8,< 5.00,"CCCC[C@H](NC(=O)[C@H](CC(C)C)NC(=O)[C@H](Cc1c[nH]cn1)NC(=O)[C@@H](C)NC(=O)[C@@H](NC(=O)[C@@H](C)NC(=O)[C@H](Cc1c[nH]c2ccccc12)NC(=O)[C@H](Cc1c[nH]cn1)NC(=O)[C@H](CC(N)=O)NC(=O)CNC(=O)COCCOCCNC(=O)COCCOCCNC(=O)CC[C@H](NC(=O)CCCCCCCCCCCCCCCCC(=O)O)C(=O)O)C(C)C)C(=O)N(C)CC(N)=O [Peptide 115, Octadecanedioyl-γGlu-OEG-OEG-Gly-Asn-His-Trp-D-Ala-Val-D-Ala-His-Leu-Nle-Sar-NH2] ({C18 diacid-γGlu-AEEA-AEEA}-GNHW[dA]V[dA]HL[Nle][Sar]-NH2)"
9,< 5.00,"CCCC[C@H](NC(=O)[C@H](CC(C)C)NC(=O)[C@H](Cc1c[nH]cn1)NC(=O)[C@@H](C)NC(=O)[C@@H](NC(=O)[C@H](C)NC(=O)[C@H](Cc1c[nH]cn1)NC(=O)[C@H](Cc1c[nH]cn1)NC(=O)[C@H](CCCNC(=N)N)NC(=O)CNC(=O)COCCOCCNC(=O)COCCOCCNC(=O)CC[C@H](NC(=O)CCCCCCCCCCCCCCCCC(=O)O)C(=O)O)C(C)C)C(N)=O [Peptide 116, Octadecanedioyl-γGlu-OEG-OEG-Gly-Arg-His-His-Ala-Val-D-Ala-His-Leu-Nle-NH2] ({C18 diacid-γGlu-AEEA-AEEA}-GRHHAV[dA]HL[Nle]-NH2)"
10,< 5.00,"CCCC[C@H](NC(=O)[C@H](CC(C)C)NC(=O)[C@H](Cc1c[nH]cn1)NC(=O)[C@@H](C)NC(=O)[C@@H](NC(=O)[C@H](C)NC(=O)[C@H](CCCNC(=N)N)NC(=O)[C@H](Cc1c[nH]cn1)NC(=O)[C@H](CC(N)=O)NC(=O)CNC(=O)COCCOCCNC(=O)COCCOCCNC(=O)CC[C@H](NC(=O)CCCCCCCCCCCCCCCCC(=O)O)C(=O)O)C(C)C)C(=O)N(C)CC(N)=O [Peptide 130, Octadecanedioyl-γGlu-OEG-OEG-Gly-Asn-His-Arg-Ala-Val-D-Ala-His-Leu-Nle-Sar-NH2] ({C18 diacid-γGlu-AEEA-AEEA}-GNHRAV[dA]HL[Nle][Sar]-NH2)"
11,< 5.00,"CCCC[C@H](NC(=O)[C@H](CC(C)C)NC(=O)[C@H](Cc1c[nH]cn1)NC(=O)[C@@H](C)NC(=O)[C@@H](NC(=O)[C@@H](C)NC(=O)[C@H](Cc1c[nH]c2ccccc12)NC(=O)[C@H](Cc1c[nH]cn1)NC(=O)[C@H](CC(=O)O)NC(=O)CNC(=O)COCCOCCNC(=O)COCCOCCNC(=O)CC[C@H](NC(=O)CCCCCCCCCCCCCCCCC(=O)O)C(=O)O)C(C)C)C(N)=O [Peptide 139, Octadecanedioyl-γGlu-OEG-OEG-Gly-Asp-His-Trp-D-Ala-Val-D-Ala-His-Leu-Nle-NH2] ({C18 diacid-γGlu-AEEA-AEEA}-GDHW[dA]V[dA]HL[Nle]-NH2)"
12,6.45,"CCCC[C@H](NC(=O)[C@H](CC(C)C)NC(=O)[C@H](Cc1c[nH]cn1)NC(=O)[C@@H](C)NC(=O)[C@@H](NC(=O)[C@H](C)NC(=O)[C@H](Cc1c[nH]c2ccccc12)NC(=O)[C@H](Cc1c[nH]cn1)NC(=O)[C@H](CC(N)=O)NC(=O)[C@H](CCCNC(=N)N)NC(=O)COCCOCCNC(=O)COCCOCCNC(=O)CC[C@H](NC(=O)CCCCCCCCCCCCCCCCC(=O)O)C(=O)O)C(C)C)C(=O)O [Peptide 156, Octadecanedioyl-γGlu-OEG-OEG-Arg-Asn-His-Trp-Ala-Val-D-Ala-His-Leu-Nle] ({C18 diacid-γGlu-AEEA-AEEA}-RNHWAV[dA]HL[Nle]-OH)"
13,8.43,"CCCC[C@H](NC(=O)[C@H](CC(C)C)NC(=O)[C@H](Cc1c[nH]cn1)NC(=O)CCNC(=O)[C@@H](NC(=O)[C@H](C)NC(=O)[C@H](Cc1c[nH]c2c(C)cccc12)NC(=O)[C@H](Cc1c[nH]cn1)NC(=O)[C@H](CCCNC(=N)N)NC(=O)CNC(=O)[C@H](CO)NC(=O)COCCOCCNC(=O)COCCOCCNC(=O)CC[C@H](NC(=O)CC[C@H](NC(=O)CCCCCCCCCCCCCCCCCCC(=O)O)C(=O)O)C(=O)O)C(C)C)C(N)=O [Peptide 256, Eicosanedioyl-γGlu-Glu-OEG-OEG-Ser-Gly-Arg-His-7MeTrp-Ala-Val-β-Ala-His-Leu-Nle-NH2] ({C20 diacid-γGlu-γGlu-AEEA-AEEA}-SGRH[Trp(7-Me)]AV[βAla]HL[Nle]-NH2)"
